{"source": "patent US12221453B2", "about": "“Substituted pyrazolo[5′,1′:2,3]pyrimido[5,4-b][1,4]oxazines as TYK2 inhibitors” (TAKEDA PHARMACEUTICAL COMPANY LIMITED, priority 2018, dated 2025)", "key": {"[1]": {"molecular_target": "human TYK2 (JH2domain-pseudokinase) (Homo sapiens (Human), UniProt P29597)", "sequence (P29597 556-888)": "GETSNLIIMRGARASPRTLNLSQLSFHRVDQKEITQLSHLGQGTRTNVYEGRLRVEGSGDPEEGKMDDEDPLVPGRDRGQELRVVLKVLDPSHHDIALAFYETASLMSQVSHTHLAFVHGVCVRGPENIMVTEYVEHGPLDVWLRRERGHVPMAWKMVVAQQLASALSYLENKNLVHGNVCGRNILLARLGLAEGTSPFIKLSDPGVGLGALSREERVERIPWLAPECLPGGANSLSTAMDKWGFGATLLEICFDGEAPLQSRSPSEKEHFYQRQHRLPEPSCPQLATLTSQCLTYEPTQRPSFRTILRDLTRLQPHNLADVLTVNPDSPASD", "test": "TYK2 JH2 domain binding assay (KINOMEscan, DiscoveRx)", "details": "11-point 3-fold dilution, top concentration 30,000 nM, duplicate; read-out: hTYK2_JH2_Binding (Kd; nM)", "method": "From these HEK 293 cells, extracts were prepared in M-PER extraction buffer (Pierce) in the presence of Protease Inhibitor Cocktail Complete (Roche) and Phosphatase Inhibitor Cocktail Set II (Merck) per manufacturers' instructions. The TYK2 (JH2domain-pseudokinase) fusion protein was labeled with a chimeric double-stranded DNA tag containing the NFkB binding site (5′-[…]-3′) fused to an amplicon for qPCR readout, which was added directly to the expression extract (the final concentration of DNA-tag in the binding reaction is 0.1 nM).\nThe liganded beads were blocked with excess biotin and washed with blocking buffer (SeaBlock (Pierce), 1% BSA, 0.05% Tween 20, 1 mM DTT) to remove unbound ligand and to reduce nonspecific binding.\nExtracts were loaded with DNA-tag and diluted into the binding reaction in a two step process. First extracts were diluted 1:100 in 1× binding buffer (PBS/0.05% Tween 20/10 mM DTT/0.1% BSA/2 μg/ml sonicated salmon sperm DNA) containing 10 nM DNA-tag. […] Kds were determined using an 11-point 3-fold compound dilution series with three DMSO control points. […]\nKds were determined using an 11-point 3-fold compound dilution series with three DMSO control points. […] The Kds were determined using a compound top concentration of 30,000 nM. […]\nBinding constants (Kds) were calculated with a standard dose-response curve using the Hill equation: […]"}, "[2]": {"system": "IL-12 induced STAT4 phosphorylation mediated by TYK2/JAK2", "test": "IL-12 induced pSTAT4 in human PBMC", "format": "cell-based", "details": "1 hr compound, 1.7 ng/mL IL-12 for 30 minutes", "method_in_brief": "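Thawed human PBMC were pre-incubated with compound for 1 hr at 37 °C (0.1% DMSO), then stimulated with 1.7 ng/mL IL-12 for 30 minutes. Phospho-STAT4 and total STAT4 were measured in cell lysates by MSD.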"}}}
{"smiles": "CNc1cc(-c2cn([C@H]3CO[C@@H](COC)C3)c3ncccc23)nc2c(C(=O)N[C@H]3CC[C@@H]3OC)cnn12", "note": "[I-1018, N-((1S,2S)-2-methoxycyclobutyl)-5-(1-(5-(methoxymethyl)tetrahydrofuran-3-yl)-1H-pyrrolo[2,3-b]pyridin-3-yl)-7-(methylamino)pyrazolo[1,5-a]pyrimidine-3-carboxamide]", "values": [{"measurement": "Kd", "setting": "[1]", "value": "< 0.2", "unit": "nM"}, {"measurement": "IC50", "setting": "[2]", "value": "< 0.1", "unit": "µM"}]}
